Data from patent publication US12376590B2, “Compositions comprising pyridine carboxylate herbicides and azole carboxylate safeners” (Corteva Agriscience LLC, priority 2018, dated 2025).

Columns and labels:
Assay in all cases: Greenhouse postemergence herbicidal safening trial, visual injury after 20-22 d
maize (ZEAMX) = format: in vivo, Zea mays
Text: (§1) Greenhouse Trial Methodology—Evaluation of Postemergence Herbicidal Safening in Crops
(§2) Seeds of the desired test plant species were planted in a 90:10% v/v (volume/volume) mixture of PRO-MIX® BX (Premier Tech Horticulture, Quakertown, PA, USA) and PROFILE® GREENS GRADE™ (Profile Products LLC, Buffalo Grove, IL, USA) planting mixture, which typically has a pH of 5.2 to 6.2 and an organic matter content of at least 50 percent, in plastic pots with a surface area of 103.2 square centimeters (cm^2). When required to ensure good germination and healthy plants, a fungicide treatment and/or other chemical or physical treatment was applied. The plants were grown for 7-36 days (d) in a greenhouse with an approximate 14-hour (h) photo-period which was maintained at about 23° C. during the day and 22° C. during the night. Nutrients and water were added on a regular basis and supplemental lighting was provided with overhead metal halide 1000-Watt lamps as necessary. The plants were employed for testing when they reached the second or third true leaf stage.
(§3) Emulsifiable concentrates of each of each pyridine carboxylate herbicide (Compound A or Compound B) were prepared at 100 grams acid equivalent per liter (g ae/L). An aliquot of each emulsifiable concentrate was placed in a 25 mL glass vial and diluted with an aqueous mixture of 1.25% (v/v) ACTIROB® B esterified rapeseed oil (Bayer Crop Science, Research Triangle Park, NC, USA) or MSO® Concentrate with LECI-TECH® methylated soybean oil (Loveland Products, Loveland, CO, USA) to obtain concentrated stock solutions at the highest application rate for each herbicide, based upon a 12 milliliter (mL) application volume at a rate of 187 liters per hectare (L/ha). The concentrated stock solutions were further diluted with an aqueous mixture of 1.25% v/v ACTIROB® B or MSO® Concentrate with LECI-TECH® to obtain stock solutions at reduced application rates for each herbicide. Spray solutions of the herbicide combinations (Compound A or Compound B plus safener) were prepared by adding weighed amounts or aliquots of the azole carboxylate safener to the stock solutions of Compound A or Compound B to form 12-mL spray solutions in two-way combinations.
(§4) The spray solutions were applied to the plant material with an overhead Mandel track sprayer equipped with 8002E nozzles calibrated to deliver 187 L/ha over an application area of 0.503 square meters (m^2) at a spray height of 18 inches (43 centimeters (cm)) above the average plant canopy. Control plants were sprayed in the same manner with the solvent blank. All herbicide (component a) application rates are given as “g ae/ha” and all safener (component b) application rates are given as “g ai/ha.”
(§5) The treated plants and control plants were placed in a greenhouse as described above and watered by sub-irrigation to prevent wash-off of the test compounds. After 20-22 d, the condition of the test plants as compared with that of the control plants was determined visually and scored on a scale of 0 to 100 percent where 0 corresponds to no injury and 100 corresponds to complete kill.

winter rape (BRSNW) = format: in vivo, Brassica napus
Text: as §1, §2, §3, §4, §5

wild chamomile (MATCH) = format: in vivo, Matricaria chamomilla; details: applied alone
Text: as §1, §2, §3, §4, §5

common sunflower (HELAN) = format: in vivo, Helianthus annuus
Text: as §1, §2, §3, §4, §5

velvetleaf (ABUTH) = format: in vivo, Abutilon theophrasti
Text: as §1, §2, §3, §4, §5

blackgrass (ALOMY) = format: in vivo, Alopecurus myosuroides
Text: as §1, §2, §3, §4, §5

wild oat (AVEFA) = format: in vivo, Avena fatua
Text: as §1, §2, §3, §4, §5

[1] = test system: common lambsquarters (CHEAL); format: in vivo, Chenopodium album L.
Text: as §1, §2, §3, §4, §5

Canada thistle (CIRAR) = format: in vivo, Cirsium arvense
Text: as §1, §2, §3, §4, §5

barnyardgrass (ECHCG) = format: in vivo, Echinochloa crus-galli
Text: as §1, §2, §3, §4, §5

Canada horseweed (ERICA) = format: in vivo, Erigeron canadensis
Text: as §1, §2, §3, §4, §5

[2] = test system: ivyleaf morningglory (IPOHE); format: in vivo, Ipomoea hederacea
Text: as §1, §2, §3, §4, §5

[3] = test system: herbicide-resistant kochia (KCHSC-R); format: in vivo, Kochia scoparia
Text: as §1, §2, §3, §4, §5

kochia (KCHSC) = format: in vivo, Kochia scoparia
Text: as §1, §2, §3, §4, §5

Italian ryegrass (LOLMU) = format: in vivo, Lolium multiflorum
Text: as §1, §2, §3, §4, §5

wild buckwheat (POLCO) = format: in vivo, Polygonum convolvulus
Text: as §1, §2, §3, §4, §5

wild pansy (VIOTR) = format: in vivo, Viola tricolor
Text: as §1, §2, §3, §4, §5

Measured: % visual injury Ob

CCOC(=O)C1=NN(c2ccc(Cl)cc2Cl)C(C)(C(=O)OCC)C1 (centres unmarked) [Mefenpyr-diethyl, mefenpyr-diethyl]
0%: maize (ZEAMX); Mefenpyr-diethyl 20 g/ha | maize (ZEAMX); Mefenpyr-diethyl 40 g/ha | maize (ZEAMX); Mefenpyr-diethyl 80 g/ha | maize (ZEAMX); applied alone, 20 g/ha | maize (ZEAMX); applied alone, 40 g/ha | maize (ZEAMX); applied alone, 80 g/ha | maize (ZEAMX); applied alone, 120 g/ha | winter rape (BRSNW); Mefenpyr-diethyl 20 g/ha | winter rape (BRSNW); Mefenpyr-diethyl 40 g/ha | winter rape (BRSNW); Mefenpyr-diethyl 80 g/ha | wild chamomile (MATCH); 10 g/ha | wild chamomile (MATCH); 20 g/ha | wild chamomile (MATCH); 40 g/ha | common sunflower (HELAN); Mefenpyr-diethyl 20 g/ha | common sunflower (HELAN); Mefenpyr-diethyl 40 g/ha | common sunflower (HELAN); Mefenpyr-diethyl 80 g/ha | common sunflower (HELAN); applied alone, 20 g/ha | common sunflower (HELAN); applied alone, 40 g/ha | common sunflower (HELAN); applied alone, 80 g/ha | common sunflower (HELAN); applied alone, 120 g/ha | velvetleaf (ABUTH); Mefenpyr-diethyl 20 g/ha | velvetleaf (ABUTH); Mefenpyr-diethyl 40 g/ha | velvetleaf (ABUTH); Mefenpyr-diethyl 80 g/ha | blackgrass (ALOMY); Mefenpyr-diethyl 20 g/ha | blackgrass (ALOMY); Mefenpyr-diethyl 40 g/ha | blackgrass (ALOMY); Mefenpyr-diethyl 80 g/ha | wild oat (AVEFA); Mefenpyr-diethyl 20 g/ha | wild oat (AVEFA); Mefenpyr-diethyl 40 g/ha | wild oat (AVEFA); Mefenpyr-diethyl 80 g/ha | [1]; Mefenpyr-diethyl 20 g/ha | [1]; Mefenpyr-diethyl 40 g/ha | [1]; Mefenpyr-diethyl 80 g/ha | Canada thistle (CIRAR); Mefenpyr-diethyl 20 g/ha | Canada thistle (CIRAR); Mefenpyr-diethyl 40 g/ha | Canada thistle (CIRAR); Mefenpyr-diethyl 80 g/ha | barnyardgrass (ECHCG); Mefenpyr-diethyl 20 g/ha | barnyardgrass (ECHCG); Mefenpyr-diethyl 40 g/ha | barnyardgrass (ECHCG); Mefenpyr-diethyl 80 g/ha | Canada horseweed (ERICA); Mefenpyr-diethyl 20 g/ha | Canada horseweed (ERICA); Mefenpyr-diethyl 40 g/ha | Canada horseweed (ERICA); Mefenpyr-diethyl 80 g/ha | [2]; Mefenpyr-diethyl 20 g/ha | [2]; Mefenpyr-diethyl 40 g/ha | [2]; Mefenpyr-diethyl 80 g/ha | [3]; Mefenpyr-diethyl 20 g/ha | [3]; Mefenpyr-diethyl 40 g/ha | [3]; Mefenpyr-diethyl 80 g/ha | kochia (KCHSC); Mefenpyr-diethyl 20 g/ha | kochia (KCHSC); Mefenpyr-diethyl 40 g/ha | kochia (KCHSC); Mefenpyr-diethyl 80 g/ha | Italian ryegrass (LOLMU); Mefenpyr-diethyl 20 g/ha | Italian ryegrass (LOLMU); Mefenpyr-diethyl 40 g/ha | Italian ryegrass (LOLMU); Mefenpyr-diethyl 80 g/ha | wild buckwheat (POLCO); Mefenpyr-diethyl 20 g/ha | wild buckwheat (POLCO); Mefenpyr-diethyl 40 g/ha | wild buckwheat (POLCO); Mefenpyr-diethyl 80 g/ha | wild pansy (VIOTR); Mefenpyr-diethyl 20 g/ha | wild pansy (VIOTR); Mefenpyr-diethyl 40 g/ha | wild pansy (VIOTR); Mefenpyr-diethyl 80 g/ha
